Source: US9409122B2, “Gas capture process” (Commonwealth Scientific and Industrial Research Organisation, priority 2011, dated 2016)

Assay: CO2 desorption at 90° C.
Type: physicochemical
Description: The test results (shown in the accompanying figures) are a comparison of four compounds within general formula (I) with 4-aminopiperidine in terms of their CO2 absorption at 40° C. (FIG. 2(a)) and CO2 desorption at 90° C. (FIG. 2(b)). These absorption experiments were carried with CO2 gas (99%).
In FIG. 3, CO2 absorption and desorption results for Compounds 1 to 4 and 4-aminopiperidine (2M and 1.7M in one case due to the material availability) were compared with MEA (4M) and piperazine (Pz) (2M). An MEA concentration of 4M was chosen in this comparison to match the total amine/nitrogen concentration of diamines (2×2M).

SMILES: C1CNCCN1 [Pz, piperazine]
- stability of carbamate: reasonably stable
